Measurements reported in patent US7892350B2, “Sacrificial agents for fly ash concrete” (Boral Material Technologies Inc., priority 2003, dated 2011).
Where “and” joins values, the source holds several entries; their conditions need not be identical. Equal values may be shown once. Read-outs that look alike come from different tables or passages of the source.

Tests used:
[1] = Air entrainment in mortars (ASTM C185-88); settings: for decrease of variability (RSD values): fly ash mortars, Air 30 combined with the SA versus Air 30 alone
Protocol: Air entrainment were measured in mortars containing portland cement only (control), or a combination of portland cement and fly ash in the ratio 70:30;
The mix compositions are given in the Table below and the measurements were performed according to standard protocols described in ASTM C185-88

[2] = Hansch, C. et al. (1995), cited from earlier work
[3] = Air entrainment in fresh concrete (ASTM C 231-97); settings: for increase in air entrained above the control values: cement-only concrete without air entrainment agents, various dosages
Protocol: The sacrificial agents were added to the cementitious mixtures in several ways: • 1) mixing together with water and air entrainment agent solution • 2) premixed with the fly ash • 3) post-added into the fresh concrete which already contained the air entrainment agent.

[4] = Second sacrificial agent testing protocol: paste air measurements with DDBS (0.0125 wt %) and rating; settings: for B1 + 0.0125% DDBS + 0.05% SA (air entrainment) / B1 + 0.0125% DDBS + 0.1% SA (air entrainment): B1 FA/cement paste; for PCA + 0.1% SA (level of air entrainment by the candidate sacrificial agent): Portland cement paste (PCA); for SA Rating (0-4): sacrificial agent overall rating index; as to Overall performance rating (second protocol rating): key: 0: Fail; 1: Poor; 2: Good; 3: Preferred; 4: Most preferred; as to SA Rating (0-4): key: 0: Fail; 1: Poor; 2: Good; 3: Preferred; 4: Most preferred
Summary of the method: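 Air entrainment was measured in cement pastes of fixed composition and fluidity. The candidate agent was tested alone at 0.1 wt % in a cement-only paste. It was also tested at 0.05 and 0.1 wt % in a fly ash (B1)-cement paste with DDBS, where air recovery was calculated against the same paste without agent.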

[5] = 30:70 fly ash B1 (LOI 5.01%):cement mortar, 0.002 wt % Air 30 alone or +0.05 wt % SA
[6] = 30:70 fly ash B1 (LOI 5.01%):cement mortar, 0.005 wt % Air 40 alone or +0.05 wt % SA
[7] = 30:70 fly ash C1 (LOI 0.70%):cement mortar, 0.002 wt % Air 30 alone or +0.05 wt % SA
[8] = 30:70 fly ash C1 (LOI 0.70%):cement mortar, 0.005 wt % Air 40 alone or +0.05 wt % SA
[9] = 30:70 fly ash C2 (LOI 3.04%):cement mortar, 0.002 wt % Air 30 alone or +0.05 wt % SA
[10] = 30:70 fly ash C2 (LOI 3.04%):cement mortar, 0.005 wt % Air 40 alone or +0.05 wt % SA
[11] = 30:70 fly ash C3 (LOI 2.54%):cement mortar, 0.002 wt % Air 30 alone or +0.05 wt % SA
[12] = 30:70 fly ash C3 (LOI 2.54%):cement mortar, 0.005 wt % Air 40 alone or +0.05 wt % SA
[13] = 30:70 fly ash D (LOI […]):cement mortar, 0.002 wt % Air 30 alone or +0.05 wt % SA
[14] = 30:70 fly ash D (LOI […]):cement mortar, 0.005 wt % Air 40 alone or +0.05 wt % SA
[15] = 30:70 fly ash H1 (LOI 8.45%):cement mortar, 0.002 wt % Air 30 alone or +0.05 wt % SA
[16] = 30:70 fly ash H1 (LOI 8.45%):cement mortar, 0.005 wt % Air 40 alone or +0.05 wt % SA
[17] = 30:70 fly ash M1 (LOI […]):cement mortar, 0.002 wt % Air 30 alone or +0.05 wt % SA
[18] = 30:70 fly ash M1 (LOI […]):cement mortar, 0.005 wt % Air 40 alone or +0.05 wt % SA
[19] = 30:70 fly ash M2 (LOI 8.78%):cement mortar, 0.002 wt % Air 30 alone or +0.05 wt % SA
[20] = 30:70 fly ash M2 (LOI 8.78%):cement mortar, 0.005 wt % Air 40 alone or +0.05 wt % SA
[21] = 30:70 fly ash M3 (LOI 3.15%):cement mortar, 0.002 wt % Air 30 alone or +0.05 wt % SA
[22] = 30:70 fly ash M3 (LOI 3.15%):cement mortar, 0.005 wt % Air 40 alone or +0.05 wt % SA
[23] = 30:70 fly ash R (LOI 0.17%):cement mortar, 0.002 wt % Air 30 alone or +0.05 wt % SA
[24] = 30:70 fly ash R (LOI 0.17%):cement mortar, 0.005 wt % Air 40 alone or +0.05 wt % SA
[25] = PCA cement mortar, no fly ash, 0.0017 wt % Air 30 alone or +0.05 wt % SA
[26] = PCA cement mortar, no fly ash, 0.004 wt % Air 40 alone or +0.05 wt % SA
[27] = over the fly ash mortars of Table 12, 0.002 wt % Air 30 alone or +0.05 wt % SA
[28] = over the fly ash mortars of Table 13, 0.005 wt % Air 40 alone or +0.05 wt % SA

Compound: OCCOc1ccccc1 [EGPE, Ethylene glycol phenyl ether]
- Air entrainment [1, 5]: 3.6
- Air entrainment ([1]; 30:70 fly ash B1 (LOI 5.01%):cement mortar, 0.005 wt % Air 40 +0.1 wt % EGPE): 9.3
- Air entrainment [1, 6]: 5.4
- Air entrainment [1, 7]: 4.7
- Air entrainment ([1]; 30:70 fly ash C1 (LOI 0.70%):cement mortar, 0.005 wt % Air 40 +0.1 wt % EGPE): 12.6
- Air entrainment [1, 8]: 6.6
- Air entrainment [1, 9]: 6.9
- Air entrainment ([1]; 30:70 fly ash C2 (LOI 3.04%):cement mortar, 0.005 wt % Air 40 +0.1 wt % EGPE): 12.4
- Air entrainment [1, 10]: 8.8
- Air entrainment [1, 11]: 5.9
- Air entrainment ([1]; 30:70 fly ash C3 (LOI 2.54%):cement mortar, 0.005 wt % Air 40 +0.1 wt % EGPE): 9.8
- Air entrainment [1, 12]: 8.0
- Air entrainment [1, 13]: 14.9
- Air entrainment ([1]; 30:70 fly ash D (LOI […]):cement mortar, 0.005 wt % Air 40 +0.1 wt % EGPE): 13.2
- Air entrainment [1, 14]: 12.8
- Air entrainment [1, 15]: 3.1
- Air entrainment ([1]; 30:70 fly ash H1 (LOI 8.45%):cement mortar, 0.005 wt % Air 40 +0.1 wt % EGPE): 5.7
- Air entrainment [1, 16]: 3.1
- Air entrainment [1, 17]: 5.4
- Air entrainment ([1]; 30:70 fly ash M1 (LOI […]):cement mortar, 0.005 wt % Air 40 +0.1 wt % EGPE): 12.7
- Air entrainment [1, 18]: 8.0
- Air entrainment [1, 19]: 2.8
- Air entrainment ([1]; 30:70 fly ash M2 (LOI 8.78%):cement mortar, 0.005 wt % Air 40 +0.1 wt % EGPE): 6.7
- Air entrainment [1, 20]: 4.9
- Air entrainment [1, 21]: 7.6
- Air entrainment ([1]; 30:70 fly ash M3 (LOI 3.15%):cement mortar, 0.005 wt % Air 40 +0.1 wt % EGPE): 18.3
- Air entrainment [1, 22]: 10.2
- Air entrainment [1, 23]: 13.5
- Air entrainment ([1]; 30:70 fly ash R (LOI 0.17%):cement mortar, 0.005 wt % Air 40 +0.1 wt % EGPE): 15.2
- Air entrainment [1, 24]: 13.5
- Air entrainment [1, 25]: 14.0
- Air entrainment ([1]; PCA cement mortar, no fly ash, 0.004 wt % Air 40 +0.1 wt % EGPE): 16.2
- Air entrainment [1, 26]: 14.9
- decrease of variability (RSD values) [1]: approximately 50%
- Average of air entrained [1, 27]: 6.8%
- Average of air entrained ([1]; over the fly ash mortars of Table 13, 0.005 wt % Air 40 +0.1 wt % EGPE): 12%
- Average of air entrained [1, 28]: 8.1%
- Experimental LogKow [2]: 1.16
- Experimental LogKow ([2]; listed as 2-Phenoxyethanol): Experimental LogKow: 1.16
- Air ([3]; 25% B1 fly ash (LOI 1.9%):PCA concrete, Air 40 0.003 % CM + EGPE 0.100 % CM): 5.1%
- Air ([3]; 25% B1 fly ash (LOI 1.9%):PCA concrete, Air 40 0.006 % CM + EGPE 0.100 % CM): 6.2%
- Air ([3]; 25% B1 fly ash (LOI 1.9%):PCA concrete, Air 40 0.009 % CM + EGPE 0.100 % CM): 7.4%
- Air ([3]; Air 30 0.006 % CM, EGPE 0.100 % CM added during batching, PCA cement, B1 fly ash 25 %, LOI […]): 11.4%
- Air ([3]; Air 30 0.006 % CM, EGPE 0.100 % CM premixed with fly ash, PCA cement, B1 fly ash 25 %, LOI […]): 10.0%
- Air ([3]; Air 40 0.003 % CM, EGPE 0.100 % CM added during batching, PCA cement, B1 fly ash 25 %, LOI […]): 2.7%
- Air ([3]; Air 40 0.003 % CM, EGPE 0.100 % CM premixed with fly ash, PCA cement, B1 fly ash 25 %, LOI […]): 2.9%
- Air ([3]; Air 40 0.008 % CM, EGPE 0.100 % CM added during batching, PCA cement, B1 fly ash 25 %, LOI […]): 4.9%
- Air ([3]; Air 40 0.008 % CM, EGPE 0.100 % CM premixed with fly ash, PCA cement, B1 fly ash 25 %, LOI […]): 4.7%
- % air, levelling-off ([3]; B1 fly ash ([…] LOI):PCA concrete, Air 40 0.003 wt %, increasing dosages of EGPE): 6-8 vol %
- % air ([3]; B1 fly ash ([…] LOI):PCA concrete, EGPE 0.1 wt % with increasing Air 40 dosage): approx 5%
- Air ([3]; PCA cement concrete, no fly ash, Air 40 0.003 % CM + EGPE 0.050 % CM): 6.5%
- Air ([3]; PCA cement concrete, no fly ash, Air 40 0.003 % CM + EGPE 0.100 % CM): 6.5%
- Air ([3]; PCA cement concrete, no fly ash, Air 40 0.003 % CM + EGPE 0.200 % CM): 6.2%
- Air ([3]; PCA cement concrete, no fly ash, Air 40 0.006 % CM + EGPE 0.050 % CM): 8.1%
- Air ([3]; PCA cement concrete, no fly ash, Air 40 0.006 % CM + EGPE 0.100 % CM): 8.3%
- Air ([3]; PCA cement concrete, no fly ash, Air 40 0.006 % CM + EGPE 0.200 % CM): 8.0%
- Air ([3]; PCC cement concrete, no fly ash, no Air 40, EGPE alone 0.010 % CM): 1.9%
- Air ([3]; PCC cement concrete, no fly ash, no Air 40, EGPE alone 0.030 % CM): 2.0%
- Air ([3]; PCC cement concrete, no fly ash, no Air 40, EGPE alone 0.050 % CM): 2.0%
- Air ([3]; PCC cement concrete, no fly ash, no Air 40, EGPE alone 0.100 % CM): 2.1%
- increase in air entrained above the control values [3]: about 1%
- Overall performance rating (second protocol rating) [4]: 4
- B1 + 0.0125% DDBS + 0.05% SA (air entrainment) [4]: 6.9
- B1 + 0.0125% DDBS + 0.1% SA (air entrainment) [4]: 8.1
- PCA + 0.1% SA (level of air entrainment by the candidate sacrificial agent) [4]: 1.5
- SA Rating (0-4) [4]: 4

Compound: O=S(=O)([O-])c1ccc2ccccc2c1.[Na+] [NS, Sodium 2-Naphthalene sulfonate]
- Air entrainment [1, 5]: 4.0
- Air entrainment [1, 6]: 5.6
- Air entrainment [1, 7]: 4.3
- Air entrainment [1, 8]: 7.2
- Air entrainment [1, 9]: 5.9
- Air entrainment [1, 10]: 7.5
- Air entrainment [1, 11]: 4.8
- Air entrainment [1, 12]: 7.8
- Air entrainment [1, 13]: 11.4
- Air entrainment [1, 14]: 12.6
- Air entrainment [1, 15]: 2.7
- Air entrainment [1, 16]: 3.0
- Air entrainment [1, 17]: 5.8
- Air entrainment [1, 18]: 8.2
- Air entrainment [1, 19]: 2.8
- Air entrainment [1, 20]: 5.0
- Air entrainment [1, 21]: 6.9
- Air entrainment [1, 22]: 10.0
- Air entrainment [1, 23]: 12.0
- Air entrainment [1, 24]: 13.7
- Air entrainment [1, 25]: 13.4
- Air entrainment [1, 26]: 14.8
- decrease of variability (RSD values) [1]: approximately 50%
- Average of air entrained [1, 27]: 6.1%
- Average of air entrained [1, 28]: 8.0%
- Overall performance rating (second protocol rating) [4]: 3
- B1 + 0.0125% DDBS + 0.05% SA (air entrainment) [4]: 4.4
- B1 + 0.0125% DDBS + 0.1% SA (air entrainment) [4]: 5.3
- PCA + 0.1% SA (level of air entrainment by the candidate sacrificial agent) [4]: 1.0
- SA Rating (0-4) [4]: 3

Compound: Sodium Di-isopropopyl naphthalene sulfonate [ND]
- Air ([3]; PCC cement concrete, no fly ash, no Air 40, ND alone 0.001 % CM): 2.3%
- Air ([3]; PCC cement concrete, no fly ash, no Air 40, ND alone 0.003 % CM): 4.1% and 3.1%
- Air ([3]; PCC cement concrete, no fly ash, no Air 40, ND alone 0.005 % CM): 4.6% and 4.8%
- Air ([3]; PCC cement concrete, no fly ash, no Air 40, ND alone 0.010 % CM): 4.6%
- Air ([3]; PCC cement concrete, no fly ash, no Air 40, ND alone 0.020 % CM): 3.9%
- Air ([3]; PCC cement concrete, no fly ash, no Air 40, ND alone 0.030 % CM): 3.8%
- Air ([3]; PCC cement concrete, no fly ash, no Air 40, ND alone 0.040 % CM): 3.9%
- increase in air entrained above the control values [3]: 2-3%
